Data from article PMC9431032, “Boosting Cosmeceutical Peptides: Coupling Imidazolium-Based Ionic Liquids to Pentapeptide-4 Originates New Leads with Antimicrobial and Collagenesis-Inducing Activities” (Microbiology Spectrum, 2022).
Converted amounts (≈) assume the structure as drawn. “And” between values parts separate entries of the source, which are not always exact repeats. Identical values can stand only once. Like-named read-outs stand apart in the source and are kept apart here. Peptide text beside a SMILES is read from it. * marks the point of attachment. X2 = Cn1cc[n+](Cc2cn(CC(=O)*)nn2)c1; Palmitoyl = CCCCCCCCCCCCCCCC(=O)*

Columns and labels:
C. albicans ATCC 90028 = experiment: microbe, parasite or virus in culture; details: Candida albicans, ATCC90028
Protocol: (§1) The MIC values were determined according to the European Committee on Antimicrobial Susceptibility Testing (EUCAST) protocol ([36]) and are shown on Table 4.
(§2) (iii) Antifungal activity.

C. glabrata ATCC 90030 = experiment: microbe, parasite or virus in culture; details: Nakaseomyces glabratus, ATCC90030
Protocol: as §1, §2

[1] = test system: C. parapsilosis ATCC 22019; experiment: microbe, parasite or virus in culture; details: Lodderomyces parapsilosis, ATCC22019
Protocol: as §1, §2

E. coli ATCC 25922 = experiment: microbe, parasite or virus in culture
Protocol: (§3) The antimicrobial activity of the IL-KTTKS conjugates was assessed in vitro against reference bacterial strains (American Type Culture Collection, ATCC). The minimal inhibitory concentration (MIC) was determined according to the Clinical and Laboratory Standards Institute (CLSI) guidelines ([28]) against Gram-positive (S. aureus, Enterococcus faecalis) and Gram-negative (Escherichia coli, Pseudomonas aeruginosa) bacteria.
(§4) (i) Antibacterial activity in standard conditions. The test conjugates and reference compounds were evaluated for their activity against three reference strains of Gram-negative bacteria, namely, E. coli (ATCC 25922), Pseudomonas aeruginosa (ATCC 27853), and Klebsiella pneumoniae (ATCC 13883), and the four following reference strains of Gram-positive bacteria, Staphylococcus aureus (ATCC 29213), S. Epidermidis (ATCC 14990), E. faecalis (ATCC 29212), and Streptococcus pyogenes (ATCC 19615). […] MBC values were also determined as previously reported ([52]).

E. faecalis ATCC 29212 = experiment: microbe, parasite or virus in culture
Protocol: as §3, §4

P. aeruginosa ATCC 27853 = experiment: microbe, parasite or virus in culture
Protocol: as §3, §4

S. aureus ATCC 29213 = experiment: microbe, parasite or virus in culture
Protocol: as §3, §4

[2] = test system: HaCaT cells (human immortalized keratinocytes); experiment: cells; type: cell-based
Protocol: (§5) The cytotoxicity of KTTK(C16Im)S and C16Im-KTTKS conjugates was assessed on human foreskin fibroblasts (HFF-1) and human immortalized keratinocytes (HaCaT). […] In turn, the parent IL [C16 M1Im][Br] and its […] equimolar mixture with PP4, KTTKS:[C16 M1Im][Br]
(§6) (iv) Toxicity to human cells. HaCat and HFF-1 were seeded at 4 × 10^4cell/mL in 96-well plate using in Dulbecco’s Modified Eagle Medium (DMEM; CLS) supplemented with 2% FBS (Biowest) and 1% of antibiotic/antimycotic solution (100 units/mL of penicillin, 10 mg/mL of streptomycin, and 0.25 mg/mL of amphotericin B, Sigma-Aldrich). The plate was incubated at 37°C in a 5% CO2 atmosphere, and the cells allowed to grow until confluence was reached. Then, solutions of the test compounds in DMEM supplemented with 2% FBS, in a concentration range between 6.3 and 100 μM, were added to the wells. After 24 h of incubation at 37°C in a 5% CO2 atmosphere, the cell viability was assessed through the resazurin reduction assay. Briefly, the medium was removed and then 20 μL of the alamarBlue Cell Viability Reagent (Resazurin sodium salt, Sigma-Aldrich) at 0.15 mg/mL in 100 μL of Hank’s Balanced Salt Solution (HBSS; Sigma-Aldrich) were added to each well; the plate was next incubated for 2 h at 37°C in a 5% CO2 atmosphere, after which fluorescence was read at 560/590 nm on a Flex Station 3 multi-mode microplate reader (Molecular Devices) ([53]). The IC50 values were thus determined using the GraphPad Prism 9.0 software, by applying the equation log(inhibitor) versus response with variable slope (four parameters).

[3] = test system: HFF-1 cells (human foreskin fibroblasts); type: cell-based; details: 24 h
Protocol: as §5, §6

[4] = type: physicochemical
Protocol: as §3
(vi) Quantitation of final peptides and their IL conjugates. Peptide stock solutions were prepared at approximately 10 mg/mL in distilled water except for C16-KTTKS-OH that was solubilized in DMSO. Accurate quantitation of the peptide solutions were quantitated by microvolume spectrophotometry at 205 nm, using a Thermo Scientific NanoDrop One system and quantitation method 31 that assumes an extinction coefficient ε205 of 31 mL·mg^−1·cm^−1 ([50]). […] To this end, the peptide was hydrolyzed using 6 M aqueous hydrochloric acid containing phenol (10% vol/vol), for 24 h at 110°C. The hydrolysate was next evaporated to dryness and the residue dissolved in HPLC-grade water (500 μL) containing α-aminobutyric acid as internal standard. The mixture thus obtained was then derivatized by the AccQ-Tag protocol from Waters using 6-aminoquinoyl-N-hydroxysuccinimidyl carbamate ([51]), and the resulting solution analyzed by HPLC (WATERS 600) with the UV-detector (WATERS 2487) set at 254 nm.

K. pneumonia ATCC 138830 = experiment: microbe, parasite or virus in culture; details: Klebsiella pneumoniae, ATCC138830
Protocol: as §3, §4

[5] = E. coli ATCC 25922, broth microdilution in cation-adjusted MHB2, CLSI, n = 3
[6] = E. faecalis ATCC 29212, broth microdilution in cation-adjusted MHB2, CLSI, n = 3
[7] = P. aeruginosa ATCC 27853, broth microdilution in cation-adjusted MHB2, CLSI, n = 3
[8] = S. aureus ATCC 29213, broth microdilution in cation-adjusted MHB2, CLSI, n = 3
[9] = Enterococcus faecalis, ATCC29212
[10] = Staphylococcus aureus, ATCC29213

**Q.** With `OC(Cn1cncn1)(Cn1cncn1)c1ccc(F)cc1F` [Fluconazole, reference compound] as the compound, how does the MIC (C. albicans ATCC 90028) read?
**A.** 1.6 µM (≈ 0.49 µg/mL)

**Q.** What about the MIC (C. glabrata ATCC 90030) of the same compound?
**A.** 26 µM (≈ 7.96 µg/mL)

**Q.** And the MIC [1]?
**A.** 6.5 µM (≈ 1.99 µg/mL)

**Q.** Which MIC (E. coli ATCC 25922; [5]) does the source give for `C[C@@H](O)[C@H](NC(=O)[C@@H](NC(=O)[C@@H](N)CCCCn1cc(C[n+]2ccn(C)c2)nn1)[C@@H](C)O)C(=O)N[C@@H](CCCCn1cc(C[n+]2ccn(C)c2)nn1)C(=O)N[C@@H](CO)C(N)=O` [K(MeIm)TTK(MeIm)S] here?
**A.** > 1245.5 μM and > 1067.4 μg/mL

**Q.** What about the MIC (E. faecalis ATCC 29212; [6]) of the same compound?
**A.** > 1245.5 μM and > 1067.4 μg/mL

**Q.** What about the MIC (P. aeruginosa ATCC 27853; [7]) of the same compound?
**A.** > 1245.5 μM and > 1067.4 μg/mL

**Q.** And the MIC (S. aureus ATCC 29213; [8])?
**A.** > 1245.5 μM and > 1067.4 μg/mL

**Q.** For `C[C@@H](O)[C@H](NC(=O)[C@@H](NC(=O)[C@@H](N)CCCCn1cc(C[n+]2ccn(C)c2)nn1)[C@@H](C)O)C(=O)N[C@@H](CCCCN)C(=O)N[C@@H](CO)C(N)=O` [K(MeIm)TTKS], which MIC (E. coli ATCC 25922; [5]) is on record?
**A.** > 1030.1 μM and > 731.2 μg/mL

**Q.** What about the MIC (E. faecalis ATCC 29212; [6]) of the same compound?
**A.** > 1030.1 μM and > 731.2 μg/mL

**Q.** What about the MIC (P. aeruginosa ATCC 27853; [7]) of the same compound?
**A.** > 1030.1 μM and > 731.2 μg/mL

**Q.** What about the MIC (S. aureus ATCC 29213; [8]) of the same compound?
**A.** > 1030.1 μM and > 731.2 μg/mL

**Q.** With `CCCCCCCCCCCCCCn1cc[n+](Cc2cn(CCCC[C@H](NC(=O)[C@@H](NC(=O)[C@@H](NC(=O)[C@@H](N)CCCCN)[C@@H](C)O)[C@@H](C)O)C(=O)N[C@@H](CO)C(N)=O)nn2)c1` [KTTK(C14Im)S] as the compound, how does the MIC (E. coli ATCC 25922; [5]) read?
**A.** 29.5 μM and 26.3 μg/mL

**Q.** And the MIC (E. faecalis ATCC 29212; [6])?
**A.** 58.9 μM and 52.6 μg/mL

**Q.** What about the MIC (P. aeruginosa ATCC 27853; [7]) of the same compound?
**A.** 58.9 μM and 52.6 μg/mL

**Q.** And the MIC (S. aureus ATCC 29213; [8])?
**A.** 29.5 μM and 26.3 μg/mL

**Q.** For `C[C@@H](O)[C@H](NC(=O)[C@@H](NC(=O)[C@@H](N)CCCCN)[C@@H](C)O)C(=O)N[C@@H](CCCCn1cc(C[n+]2ccn(C)c2)nn1)C(=O)N[C@@H](CO)C(N)=O` [KTTK(MeIm)S], which MIC (E. coli ATCC 25922; [5]) is on record?
**A.** > 954.2 μM and > 677.3 μg/mL

**Q.** And the MIC (E. faecalis ATCC 29212; [6])?
**A.** > 954.2 μM and > 677.3 μg/mL

**Q.** What about the MIC (P. aeruginosa ATCC 27853; [7]) of the same compound?
**A.** > 954.2 μM and > 677.3 μg/mL

**Q.** What about the MIC (S. aureus ATCC 29213; [8]) of the same compound?
**A.** > 954.2 μM and > 677.3 μg/mL

**Q.** With `C[C@@H](O)[C@H](NC(=O)[C@H](CCCCN)NC(=O)Cn1cc(C[n+]2ccn(C)c2)nn1)C(=O)N[C@H](C(=O)N[C@@H](CCCCN)C(=O)N[C@@H](CO)C(N)=O)[C@@H](C)O` [MeIm-KTTKS] (X2-KTTKS-NH2) as the compound, how does the MIC (E. coli ATCC 25922; [5]) read?
**A.** > 825.9 μM and > 633.4 μg/mL

**Q.** And the MIC (E. faecalis ATCC 29212; [6])?
**A.** > 825.9 μM and > 633.4 μg/mL

**Q.** And the MIC (P. aeruginosa ATCC 27853; [7])?
**A.** > 825.9 μM and > 633.4 μg/mL

**Q.** And the MIC (S. aureus ATCC 29213; [8])?
**A.** > 825.9 μM and > 633.4 μg/mL

**Q.** With `CCCCCCCCCCCCCCCC(=O)N[C@@H](CCCCN)C(=O)N[C@H](C(=O)N[C@H](C(=O)N[C@@H](CCCCN)C(=O)N[C@@H](CO)C(=O)O)[C@@H](C)O)[C@@H](C)O` [Peptide C16-KTTKS-OH] (Palmitoyl-KTTKS-OH) as the compound, how does the IC50 ([2]; 24 h) read?
**A.** > 100 µM

**Q.** And the IC50 [3]?
**A.** 79.7 ± 2.82 µM

**Q.** What about the “Behaviour when diluted in cation-adjusted Mueller-Hinton broth (MHB2)” value [4] of the same compound?
**A.** precipitated

**Q.** What about the Solubility in water [4] of the same compound?
**A.** poor solubility in water

**Q.** What about the “Solvent in which the peptide was soluble” value [4] of the same compound?
**A.** dimethyl sulfoxide (DMSO)

**Q.** Which MIC (E. coli ATCC 25922; Escherichia coli, ATCC25922) does the source give for `CCCCCCCCCCCCCCCCn1cc[n+](C)c1` [[C16 M1Im][Br], 1-hexadecyl-3-methylimidazolium bromide, reference compound] here?
**A.** 60 µM

**Q.** What about the MBC (E. faecalis ATCC 29212; [9]) of the same compound?
**A.** 15 µM

**Q.** What about the MIC (E. faecalis ATCC 29212; [9]) of the same compound?
**A.** 0.94 µM

**Q.** What about the MIC (K. pneumonia ATCC 138830) of the same compound?
**A.** 60 µM

**Q.** What about the MIC (P. aeruginosa ATCC 27853; Pseudomonas aeruginosa, ATCC27853) of the same compound?
**A.** > 240 µM

**Q.** What about the MBC (S. aureus ATCC 29213; [10]) of the same compound?
**A.** 30 µM

**Q.** And the MIC (S. aureus ATCC 29213; [10])?
**A.** 0.94 µM

**Q.** What about the MIC (C. albicans ATCC 90028) of the same compound?
**A.** 0.93 µM

**Q.** And the MIC (C. glabrata ATCC 90030)?
**A.** 0.93 µM

**Q.** What about the MIC [1] of the same compound?
**A.** 0.93 µM

**Q.** And the IC50 ([2]; Homo sapiens, HaCaT, 24 h incubation, 6.3-100 μM, resazurin, mean ± SEM of 2 independent experiments (n = 8), read-out: IC50 ± SEM)?
**A.** 6.27 ± 1.02 µM

**Q.** With “C16-KTTKS-NH2 [C-terminal carboxamide analogue of Matrixyl]” as the compound, how does the “Behaviour when diluted in cation-adjusted Mueller-Hinton broth (MHB2)” value [4] read?
**A.** precipitated

**Q.** What about the “Solvent in which the peptide was soluble” value [4] of the same compound?
**A.** water
